Assay [1] has as its system Bacillus pneumoniae 46101. Description: In vitro antibacterial activity (MIC, agar double dilution). To be noted: read-out: MIC of the drug to bacteria. In kind it is cell-based. The text has this:
(§1) tested samples YR-1, YR-2 were the ones prepared in example 1 and example 5 respectively, control samples were cefetamet sodium (CTM), cefuroxime sodium (CRX), cefetamet sodium+sulbactam sodium (CTM+SBT) (molar ratio 1:1), cefuroxime+sulbactam sodium (CRX+SBT) (molar ratio 1:1). All control samples (have been sold on the market) were supplied by Zhejiang Yongning pharmaceutical factory.
(§2) Staphylococcus aureus 26003, Diplococcus lanceolatus 31002, E. coli 44102, Shigella sonnet 51081, Shigella bogdii 51313, Shigella flexneri 51573, Proteus mirabilis 49005, Bacillus proteus 49085, Proteus morganii 49086, Pseudomonas aeruginosa 10124, Bacillus pneumoniae 46101, Salmonella enteritidis 50041, Salmonella typhi 50097, Citrobacter 48017, Candida ciferii 41002 were supplied by Shanghai Hygienic and Antiepidemic Station.
(§3) Mueller-Hinton Agar (M.H) culture medium, batch number 20040528 (Shanghai Reagent Supply Research Center, China Diarrhea Disease Control).
(§4) Adopted agar double dilution, inoculated using multipoint inoculator, inoculated 10^5CFU/ML each point, cultured for 24 hours at 37° C., observed and recorded the results, set the least concentration of the antibacterial drug that can inhibit bacteria growth as the minimum inhibitory concentration (MIC).

A further assay deals with Bacillus proteus 49085. The description is as above. In kind it is cell-based. The note with it: read-out: MIC of the drug to bacteria.
Source text: as §1, §2, §3, §4

A further assay concerns Candida ciferii 41002. The assay is described as above. It is filed as cell-based. To be noted: read-out: MIC of the drug to bacteria.
Source text: as §1, §2, §3, §4

A further assay relates to Citrobacter 48017. Described as above. In kind it is cell-based. The note with it: Citrobacter, 48017, 24 h, read-out: MIC of the drug to bacteria.
Source text: as §1, §2, §3, §4

Assay [2] relates to Diplococcus lanceolatus 31002. The description is as above. It is filed as cell-based. To be noted: read-out: MIC of the drug to bacteria.
Source text: as §1, §2, §3, §4

A further assay has as its system E. coli 44102. Described as above. The note with it: read-out: MIC of the drug to bacteria. It is filed as cell-based.
Source text: as §1, §2, §3, §4

A further assay deals with Proteus mirabilis 49005. The description is as above. To be noted: Proteus mirabilis, 49005, 24 h, read-out: MIC of the drug to bacteria. It is filed as cell-based.
Source text: as §1, §2, §3, §4

Assay [3] concerns Pseudomonas aeruginosa 10124. Described as above. It is filed as cell-based. The note with it: read-out: MIC of the drug to bacteria.
Source text: as §1, §2, §3, §4

In assay [4] the test system is Salmonella enteritidis 50041. The description is as above. It is filed as cell-based. To be noted: Salmonella enterica, read-out: MIC of the drug to bacteria.
Source text: as §1, §2, §3, §4

Another assay deals with Salmonella typhi 50097. The description is as above. It is filed as cell-based. The note with it: Salmonella enterica, 10^5CFU/ML each point, 24 hours at 37° C., read-out: MIC of the drug to bacteria.
Source text: as §1, §2, §3, §4

In the next assay the test system is Shigella bogdii 51313. The description is as above. In kind it is cell-based. To be noted: Shigella, 51313, 24 h, read-out: MIC of the drug to bacteria.
Source text: as §1, §2, §3, §4

The test system of another assay is Shigella flexneri 51573. The description is as above. The note with it: Shigella flexneri, 51573, 24 h, read-out: MIC of the drug to bacteria. It is filed as cell-based.
Source text: as §1, §2, §3, §4

The test system of another assay is Shigella sonnet 51081. The assay is described as above. In kind it is cell-based. The note with it: Shigella, 51081, 24 h, read-out: MIC of the drug to bacteria.
Source text: as §1, §2, §3, §4

The test system of assay [5] is Staphylococcus aureus 26003. The assay is described as above. In kind it is cell-based. To be noted: Staphylococcus aureus, 26003, 24 h, read-out: MIC of the drug to bacteria.
Source text: as §1, §2, §3, §4

The next assay concerns Proteus morganii 49086. Described as above. It is filed as cell-based.
Source text: as §1, §2, §3, §4

The subject of the next assay is Bacillus aerogenes 45102. The assay is described as above. It is filed as cell-based. The note with it: Bacillus, 45102, 24 h, read-out: MIC of the drug to bacteria.
Source text: as §1
(§5) Staphylococcus epidermidis 26069 and Bacillus aerogenes 45102 were supplied by Beijing Drug & Biology Product Appraisal Bureau.
as §3, §4

Assay [6] has as its system Staphylococcus epidermidis 26069. The description is as above. In kind it is cell-based. To be noted: read-out: MIC of the drug to bacteria.
Source text: as §1, §5, §3, §4

Assay [7] deals with Diplococcus lanceolatus 0031. The description is as above. In kind it is cell-based. To be noted: read-out: MIC of the drug to bacteria.
Source text: as §1
Diplococcus lanceolatus 0031 was supplied by Shanghai First People's Hospital.
as §3, §4

The subject of assay [8] is Bacillus proteus 49085, Proteus morganii 49086. Description: Ex vivo antibacterial activity experiment after mouse is administered, conclusions (strains not separated). In kind it is in vivo. The note with it: mice, intravenous injection 500 mg/kg. The text has this: the sources of tested samples (YR-1, YR-2) and control samples (CTM, CRX, CTM+SBT 1:1 and CRX+SBT 1:1) are the same as above. Bacillus proteus 49085, Proteus morganii 49086, inoculated 10^5CFU/ML each dish. Mueller-Hinton Agar (M.H) culture medium, batch number 000707 (Shanghai Reagent Supply Research Center, China Diarrhea Disease Control). Strain: Kunming mice; source: Animal Facility of Shanghai Institute of Pharmaceutical Industry; certificate number: Hudonghezhengzi No. 107; animal numbers: 120; Sex: same number of male and female mice; Body weight: 18-21 g; fast time: 16 hours. Group 1: CTM, CRX, CTM+SBT 1:1, CRX+SBT 1:1 were given at a dosage of 500 mg/kg intravenously, collecting blood at 10 minutes, 30 minutes, 1 hour, 2 hours, 4 hours, 8 hours after administration. Group 2: […] Kunming mice were randomly divided into several groups according to body weight of empty stomach and sex. Collecting blood of three mice at different time point, anticoagulated with heparin, centrifugated and separated plasma, quantitative spotting, semi-quantitated antibacterial activity according to the size of bacterial inhibition ring.

The test system of assay [9] is type II, III, IV, V β-lactamase. The note with it: at a concentration of 2 μg/ml; cited from earlier work.

Like-named read-outs stand apart in the source and are kept apart here. Bounds are passed on as bounds.

`CO/N=C(\C(=O)N[C@@H]1C(=O)N2C(C(=O)O)=C(COC(N)=O)CS[C@H]12)c1ccco1` [CRX, cefuroxime sodium, reference compound]: the MIC in assay [1] (Klebsiella pneumoniae, Bacillus pneumoniae 46101, 10^5CFU/ML each point, 24 hours at 37° C.) worked out at 25 µg/mL; with Bacillus proteus 49085 (Bacillus proteus 49085, 10^5CFU/ML each point, 24 hours at 37° C.) it was 0.78 µg/mL; in the assay with Candida ciferii 41002 (Candida ciferii 41002, 10^5CFU/ML each point, 24 hours at 37° C.), 25 µg/mL; in the assay on Citrobacter 48017, 1.56 µg/mL; in [2] (Diplococcus lanceolatus 31002, 10^5CFU/ML each point, 24 hours at 37° C.), 25 µg/mL; in the assay with E. coli 44102 (Escherichia coli, E. coli 44102, 10^5CFU/ML each point, 24 hours at 37° C.), 6.25 µg/mL. For the same compound, the minimum inhibitory concentration (MIC) with Proteus mirabilis 49005 was 1.56 µg/mL; in assay [3] (Pseudomonas aeruginosa 10124, 10^5CFU/ML each point, 24 hours at 37° C.) it was 100 µg/mL; in assay [4] (Salmonella enteritidis 50041, 10^5CFU/ML each point, 24 hours at 37° C.), 6.25 µg/mL; in the assay with Salmonella typhi 50097, 3.13 µg/mL; in the assay with Shigella bogdii 51313 it was 1.56 µg/mL; in the assay on Shigella flexneri 51573 it was 1.56 µg/mL. The MIC in the assay on Shigella sonnet 51081 was found to be 0.78 µg/mL; in assay [5] it was 1.56 µg/mL; in the assay with Proteus morganii 49086 (Morganella morganii, Proteus morganii 49086, 10^5CFU/ML each point, 24 hours at 37° C., read-out: MIC of the drug to bacteria), 100 µg/mL; with Bacillus aerogenes 45102, 3.13 µg/mL; in [6] (Staphylococcus epidermidis 26069, 10^5CFU/ML each point, 24 hours at 37° C.) it was 0.39 µg/mL; in [7] (Diplococcus lanceolatus 0031, 10^5CFU/ML each point, 24 hours at 37° C.), 0.78 µg/mL. In assay [8], the “antibacterial activities in blood 8 hours after administration” value is recorded as “can not be detected”.
Consider `CO/N=C(\C(=O)N[C@@H]1C(=O)N2C(C(=O)O)=C(C)CS[C@H]12)c1csc(N)n1` [CTM, cefetamet sodium, reference compound], for which the MIC in assay [1] (Klebsiella pneumoniae, 46101, 24 h) is 0.78 µg/mL; in the assay on Bacillus proteus 49085 (Bacillus, 49085, 24 h), 0.195 µg/mL; with Candida ciferii 41002 (Candida, 41002, 24 h), 0.78 µg/mL; with Citrobacter 48017 it was 1.56 µg/mL; in assay [2] (24 h), greater than 100 µg/mL; in the assay with E. coli 44102 (Escherichia coli, 44102, 24 h) it was 0.78 µg/mL. In addition, the MIC is 0.195 µg/mL in the assay with Proteus mirabilis 49005; 100 µg/mL in [3] (Pseudomonas aeruginosa, 10124, 24 h); 0.78 µg/mL in assay [4] (ENTERITIDIS, 24 h); 0.78 µg/mL in the assay with Salmonella typhi 50097; 0.39 µg/mL in the assay with Shigella bogdii 51313; 0.78 µg/mL in the assay on Shigella flexneri 51573. The MIC is 0.39 µg/mL in the assay on Shigella sonnet 51081; 100 µg/mL in assay [5]; greater than 100 µg/mL in the assay with Proteus morganii 49086 (Morganella morganii, 49086, 24 h, read-out: MIC of the drug to bacteria); greater than 100000 µg/mL in the assay with Proteus morganii 49086 (Morganella morganii, 49086, read-out: MIC (as restated in the conclusions)); 0.195 µg/mL in the assay on Bacillus aerogenes 45102; 12.5 µg/mL in assay [6] (Staphylococcus epidermidis, 26069, 24 h). For the same compound, the minimum inhibitory concentration (MIC) in assay [7] (24 h) stood at 25 µg/mL. In addition, the “antibacterial activities in blood 8 hours after administration” value in [8] is listed as “can not be detected”.
Consider `CC1(C)[C@H](C(=O)O)N2C(=O)C[C@H]2S1(=O)=O` [Sulbactam], for which the “inhibition to β-lactamase” value in [9] is listed as “extremely strong inhibition”.

Usually MIC stands for the least concentration at which growth counts as inhibited.

The record behind these values is patent US7750148B2, “Intermediate compound for the production of β-lactamase-resistant cephalosporin ester compounds and salts thereof” (Zhejiang Yongning Pharmaceutical Factory, priority 2003, dated 2010).
